Patent publication US6703011B2, “Application of film forming technology to fragrance control release systems; and resultant fragrance control release systems” (International Flavors & Fragrances Inc., priority 1998, dated 2004)
Where a name gives a salt, the structure may show the parent alone.

How the values were obtained:
[1] = vapor pressure of fragrance components
[2] = FRAGRANCE PERMEATION TEST (diffusion cell, weight loss); format: physicochemical; conditions: for permeation rate through hydroxypropyl cellulose / permeation rate through polyvinyl alcohol: 35° C., film thickness about 150 microns; for permeation rate through polyvinyl alcohol: FIG. 5C (98% hydrolyzed polyvinyl acetate)
Description: Referring to FIGS. 4A and 4B, fluid 46 is located in jar 44. Jar 44 has sidearm 45. The fluid 46 reaches fluid level 47. Directly in line with fluid level 47 is membrane 41. The diffusion membrane 41 is held in place with flanges 43 and jar lip 42, using bolts 401a and 401b which secures the flange in place. The sidearm 45 is closed using closure 49. The permeability apparatus is shown using reference numeral 40. The FRAGRANCE PERMEABILITY TEST is based on the use of the apparatus of FIGS. 4A and 4B. The weight of membrane 41 is taken, initially, before being placed within the flange 43 and the jar lip 42. Substance 46 for which the permeability is to be measured is placed into jar 44 to fluid level 47. The apparatus containing fluid 46 remains in place for a fixed period of time. At the end of that period of time, bolts 401a and 401b as well as 401c are loosened, the flange 43 removed and membrane 41 is removed and weighed, thereby gathering sufficient data to determine the permeability of the particular substance 46. The design and development of fragrance controlled release systems is built upon an understanding of the transport mechanisms of aroma chemicals and fragrances through polymers. The ability of the film forming polymers to sustain fragrance release was determined by permeation studies. A special diffusion cell has been developed to measure the steady state permeation of aroma chemicals and fragrances through polymeric films using weight loss. […] The polymeric film is mounted on the diffusion cell and is tightly secured by a glass ring fitted with three screws. […] The diffusant (fragrances, single or mixture of aroma chemicals) is kept in contact with the polymer film throughout the experiment period by filling the diffusion cell arm with the diffusant. The permeation rate of the diffusant is determined by monitoring the changes in the diffusion cell weight. The permeability coefficient, or permeability P, is useful in describing the rate of mass transport through a polymer at steady state. Permeability is related to two basic properties: diffusion and solubility. The permeability coefficient can be expressed by the diffusion coefficient (D) and the solubility coefficient (S). Their relationship is described by the following equation: This value is the actual weight loss that is being measured during our experiments. […] P=DS and the use of neat material (not dilution in a solvent), one can then solve the equation to determine the permeability coefficient using the cell dimension (surface area, A), the thickness of the film (L) and the weight loss data (Q=dM/dt): [formula] The effect of fragrance physical and chemical properties on its permeation rate through the film forming polymers was studied using the experimental setup described, supra. FIG. 5B, described in detail, supra, presents the effect of log10P on the permeation rate of the two model aroma chemicals through hydroxypropyl cellulose. The permeation studies were carried out at 35° C., and the temperature was kept constant within ±0.5 C. throughout the experiment period. […] The aroma chemicals studied, ethyl […] β-pinene, have approximately the same values of vapor pressure, but differ in their solubility in water. Ethyl […] lower value of log10P and thus is more water soluble than β-pinene. The permeation rates on two model aroma chemicals having a high and low log10P through a polyvinyl alcohol, having crystalline and better packed structure, were also studied and are illustrated in FIG. 5C, described in detail, supra. The permeation studies were carried out at 35° C., and the temperature was kept constant within +0.5° C. throughout the experiment period. […] The aroma chemicals studied, ethyl […] β-pinene, have about the same values of vapor pressure, but differ in their solubility in water. Ethyl […] lower value of log10P and thus is more water soluble than β-pinene.

[3] = evaporation rate of aroma chemical without the polymer; format: physicochemical; conditions: 35° C.
Experimental: The effect of fragrance physical and chemical properties on its permeation rate through the film forming polymers was studied using the experimental setup described, supra. FIG. 5B, described in detail, supra, presents the effect of log10P on the permeation rate of the two model aroma chemicals through hydroxypropyl cellulose. The permeation studies were carried out at 35° C., and the temperature was kept constant within ±0.5 C. throughout the experiment period. The thickness of the films studied was about 150 microns. The aroma chemicals studied, ethyl […] β-pinene, have approximately the same values of vapor pressure, but differ in their solubility in water. Ethyl […] lower value of log10P and thus is more water soluble than β-pinene. The permeation rates on two model aroma chemicals having a high and low log10P through a polyvinyl alcohol, having crystalline and better packed structure, were also studied and are illustrated in FIG. 5C, described in detail, supra. The permeation studies were carried out at 35° C., and the temperature was kept constant within +0.5° C. throughout the experiment period. The thickness of the films studied was about 150 microns. The aroma chemicals studied, ethyl […] β-pinene, have about the same values of vapor pressure, but differ in their solubility in water. Ethyl […] lower value of log10P and thus is more water soluble than β-pinene.

[4] = polymer film material: carboxymethyl cellulose
[5] = polymer film material: polyvinyl alcohol (74% hydrolyzed)
[6] = polymer film material: polyvinyl alcohol (98% hydrolyzed)

Compound | Vapor Pressure ([1]; at 25° C.) [mm/Hg] | also measured
CC1=CC(C)C(C=O)CC1 (stereo not drawn) | 0.3 | 
CC(OC=O)C1CCCC(C)(C)C1 (stereo not drawn) [C.P. FORMATE®, the formic acid ester of 1,1-dimethyl-3(1-hydroxyethyl)cyclohexane, reference compound] |  | Vapor Pressure ([1]; figure legends, unit inferred): 0.1 mmHg; Permeation ([2]; polymer film material: hydroxypropyl cellulose (molecular weight = 100,000)): 2.5 × 10^−4 mg-mm thickness/cm^2 area - mi
CC1(C)C2CCC1(C)C(O)C2 (stereo not drawn) [Example 1-borneol, 1-borneol] | 0.02 | 
CC(=O)C1(C)CC2=C(CCCC2(C)C)CC1C (stereo not drawn) [ISO E SUPER ®] | 0.002 | 
CC(C=O)Cc1ccc(C(C)(C)C)cc1 (stereo not drawn) [LILIAL ®] | 0.003 | 
CC(=O)c1cc2c(cc1C)C(C)(C)C(C)CC2(C)C (stereo not drawn) [TONALID ®] | 0.0001 | 
CC(=O)OC1CCC(C(C)(C)C)CC1 (stereo not drawn) [VERTENEX ® HC] | 0.03 | 
C=CCOC(=O)COCCC(C)C [allyl amyl glycolate] | 0.07 | 
CC(=O)OCc1ccccc1 [benzyl acetate] | 0.1 | 
CC12CCC(CC1=O)C2(C)C (stereo not drawn) [camphor] | 0.1 | 
CC/C=C\CCOC(C)=O [cis-3-hexenyl acetate] | 2.0 | 
CC/C=C\CCOC(=O)c1ccccc1O [cis-3-hexenyl salicylate] | 0.0008 | 
CC(C)=CCCC(C)CCO (stereo not drawn) [citronellol] | 0.009 | 
CC(C=O)Cc1ccc(C(C)C)cc1 (stereo not drawn) [cyclamal] | 0.004 | 
C/C=C(\C)C(=O)OCC [ethyl tiglate] |  | Vapor Pressure ([1]; figure legends, unit inferred): 1.8 mmHg; permeation rate through hydroxypropyl cellulose [2]: exactly the same as its evaporation rate without the polymer; permeation rate through polyvinyl alcohol [2]: about 1.8×10^−4; permeation rate through hydroxypropyl cellulose ([2]; listed as Ethyl tiglate): equal to its evaporation rate; Permeation [2, 4]: 2.8 × 10^−3 mg-mm thickness/cm^2 area - mi; Permeation [2, 5]: 5 × 10^−3 mg-mm thickness/cm^2 area - mi; Permeation [2, 6]: 2 × 10^−3 mg-mm thickness/cm^2 area - mi; overall permeation rate ([2]; through positively charged polymers POLYMER LK and POLYMER LR-400 (FIG. 5I)): 5.8×10^−4
C=CC(C)(CCC=C(C)C)OC(C)=O (stereo not drawn) [linalyl acetate] | 0.07 | 
C=CCc1ccc(OC)cc1 [methyl chavicol] | 0.09 | 
CCCCCCCC=O [n-octanal] |  | Permeation ([2]; not told): 2.8 × 10^−3 mg-mm thickness/cm^2 area - mi
C=C1CCC2CC1C2(C)C (stereo not drawn) [β-pinene] |  | Vapor Pressure ([1]; figure legends, unit inferred): 2.2 mmHg; permeation rate through hydroxypropyl cellulose [2]: 2.7×10^−4; permeation rate through polyvinyl alcohol [2]: about 1.8×10^−4; Permeation [2, 4]: 2.8 × 10^−3 mg-mm thickness/cm^2 area - mi; Permeation [2, 5]: 2.5 × 10^−3 mg-mm thickness/cm^2 area - mi; Permeation [2, 6]: 2 × 10^−3 mg-mm thickness/cm^2 area - mi; permeation rate ([2]; through POLYMER LK (FIG. 5K, graph 596)): 3.9×10^−5; permeation rate ([2]; through POLYMER LR-400 (FIG. 5K, graph 595)): 7.5×10^−5; evaporation rate without the polymer [3]: about 0.15

The next lines start with results.

Vapor Pressure ([1]; at 25° C.) [mm/Hg] | Compound | also measured
0.09 | CC(=O)O[C@@H]1C[C@H]2CC[C@]1(C)C2(C)C (racemic) [isobornyl acetate] | 
0.09 | C=CC(C)CCCC(C)(C)O (stereo not drawn) [dihydromyrcenol] | 
0.0003 | CCCCCCC(C=O)=Cc1ccccc1 [hexyl cinnamic aldehyde] | 
0.05 | C=CC(C)(O)CCC=C(C)C (stereo not drawn) [linalool] | 
0.009 | CCCCCCCCCC(C)C=O (stereo not drawn) [methyl nonyl acetaldehyde] | 
0.1 | CC(=O)OC(C)c1ccccc1 (stereo not drawn) [styralyl acetate] | 
0.02 | CC1=CCC(C(C)(C)O)CC1 (stereo not drawn) [α-terpineol] | 
0.006 | CC(=O)/C=C/C1=C(C)CCCC1(C)C [β-ionone] | 
0.02 | OCCc1ccccc1 [β-phenyl ethyl alcohol] | 
0.002 | peach aldehyde coeur | 
